This assay addresses human F508del-CFTR (Homo sapiens, UniProt P13569, DEL508-508). As to the kind of experiment: F508del-CFTR cell surface expression (corrector activity), DiscoveRx ß-galactosidase complementation chemiluminescence assay in recombinant U2OS cell line.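 On all read-outs here: U2OS cells co-expressing ProLink-tagged F508del-CFTR and a membrane-anchored enzyme acceptor, where more surface CFTR restores β-galactosidase activity measured by chemiluminescence.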 To be noted: for pEC50: EC50, F508del-CFTR cell surface expression, U2OS cells, 16h compound incubation, geomean values; for Emax: in relation to Emax of corrector lumacaftor (=100%), arithmetic mean values.

pEC50: −log10 of the molar value.

Sequence of human F508del-CFTR (P13569 with tags, fused parts or gaps DEL508-508): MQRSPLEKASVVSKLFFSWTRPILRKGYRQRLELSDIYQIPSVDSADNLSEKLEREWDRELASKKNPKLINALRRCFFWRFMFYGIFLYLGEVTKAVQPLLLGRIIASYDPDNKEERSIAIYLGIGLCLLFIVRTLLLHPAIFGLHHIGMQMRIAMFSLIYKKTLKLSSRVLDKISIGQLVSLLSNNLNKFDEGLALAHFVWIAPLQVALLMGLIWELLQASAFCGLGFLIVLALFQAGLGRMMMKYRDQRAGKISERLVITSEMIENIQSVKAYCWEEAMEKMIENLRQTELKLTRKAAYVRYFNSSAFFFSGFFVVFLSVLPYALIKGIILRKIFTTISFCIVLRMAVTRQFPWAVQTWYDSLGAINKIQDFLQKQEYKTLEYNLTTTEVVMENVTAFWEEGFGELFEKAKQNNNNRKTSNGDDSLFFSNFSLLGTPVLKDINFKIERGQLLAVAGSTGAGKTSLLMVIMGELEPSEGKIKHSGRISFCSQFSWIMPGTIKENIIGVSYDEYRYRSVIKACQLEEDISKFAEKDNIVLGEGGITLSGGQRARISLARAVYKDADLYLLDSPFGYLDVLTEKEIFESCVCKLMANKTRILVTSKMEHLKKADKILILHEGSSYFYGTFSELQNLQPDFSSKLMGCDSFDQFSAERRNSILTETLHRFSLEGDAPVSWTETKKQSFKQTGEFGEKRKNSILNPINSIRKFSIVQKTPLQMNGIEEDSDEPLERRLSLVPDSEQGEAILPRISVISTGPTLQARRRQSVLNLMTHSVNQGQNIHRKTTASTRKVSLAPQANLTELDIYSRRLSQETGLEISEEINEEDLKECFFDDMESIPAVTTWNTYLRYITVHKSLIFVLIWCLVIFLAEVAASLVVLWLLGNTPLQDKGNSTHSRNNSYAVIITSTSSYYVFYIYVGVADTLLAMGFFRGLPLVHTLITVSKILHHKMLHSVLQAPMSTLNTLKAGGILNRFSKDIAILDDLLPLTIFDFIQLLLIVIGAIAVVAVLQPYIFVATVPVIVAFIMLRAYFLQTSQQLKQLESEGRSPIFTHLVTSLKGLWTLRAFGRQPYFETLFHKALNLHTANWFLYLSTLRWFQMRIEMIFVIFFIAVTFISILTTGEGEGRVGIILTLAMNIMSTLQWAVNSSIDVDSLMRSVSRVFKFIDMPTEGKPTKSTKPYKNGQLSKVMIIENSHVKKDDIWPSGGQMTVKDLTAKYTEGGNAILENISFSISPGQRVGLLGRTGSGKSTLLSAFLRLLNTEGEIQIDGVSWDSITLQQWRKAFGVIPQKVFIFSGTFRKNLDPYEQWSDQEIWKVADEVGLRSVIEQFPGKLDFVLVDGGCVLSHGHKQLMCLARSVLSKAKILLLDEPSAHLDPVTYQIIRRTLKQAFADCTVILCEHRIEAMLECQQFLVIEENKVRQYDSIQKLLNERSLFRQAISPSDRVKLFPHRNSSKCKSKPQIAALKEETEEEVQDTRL

Broadly, the pEC50 is −log10 of the EC50, conventionally taken in molar units. A word on the Emax: it is the greatest response seen or fitted, relative to the assay's reference. With `COc1cccc(CCNC(=O)[C@@H]2CC(=O)N(C)[C@@H](CC(C)C)C(=O)N(C)CC(=O)N[C@H](Cc3ccccc3)COc3ccc4ncc(F)cc4c3C(=O)N2)c1` [Example 507, (3S,7S,13R)-13-benzyl-20-fluoro-7-isobutyl-N-(3-methoxyphenethyl)-6,9-dimethyl-1,5,8,11-tetraoxo-1,2,3,4,5,6,7,8,9,10,11,12,13,14-tetradecahydro-[1]oxa[4,7,10,14]tetraazacycloheptadecino[16,17-f]quinoline-3-carboxamide], the pEC50 is 6.33. In addition, the Emax (U2OS) is 337%.

Consider `Cc1cc(CCNC(=O)[C@@H]2CC(=O)N(C)[C@@H](CC(C)C)C(=O)N(C)[C@H](C3CC3)C(=O)N[C@H](Cc3ccccc3)COc3ccc4ccccc4c3C(=O)N2)on1` [Example 508, (3S,7S,10R,13R)-13-benzyl-10-cyclopropyl-7-isobutyl-6,9-dimethyl-N-(2-(3-methylisoxazol-5-yl)ethyl)-1,5,8,11-tetraoxo-1,2,3,4,5,6,7,8,9,10,11,12,13,14-tetradecahydronaphtho[1,2-p][1]oxa[4,7,10,14]tetraazacycloheptadecine-3-carboxamide], for which the pEC50 is 6.42. In addition, the Emax (U2OS) was found to be 378%.

On to `COc1cccc(CCNC(=O)[C@@H]2CC(=O)N(C)[C@@H](CC(C)C)C(=O)N3CCN(c4ccccc4)C[C@@H]3C(=O)N[C@H](Cc3ccccc3)COc3cnc4ccccc4c3C(=O)N2)c1` [Example 509, (9S,13S,19aR,22R)-22-benzyl-13-isobutyl-N-(3-methoxyphenethyl)-12-methyl-7,11,14,20-tetraoxo-18-phenyl-7,8,9,10,11,12,13,14,17,18,19,19a,20,21,22,23-hexadecahydro-16H-pyrazino[2′,11:6,7][1]oxa[4,7,10,14]tetraazacycloheptadecino[17,16-c]quinoline-9-carboxamide], for which the pEC50 is 7.12. Also, the Emax (U2OS) worked out at 327%.

As to `Cc1cc(CCNC(=O)[C@@H]2CC(=O)N(C)[C@@H](CC(C)C)C(=O)N3CCN(c4ccccc4)C[C@@H]3C(=O)N[C@H](Cc3ccccc3)COc3cnc4ccccc4c3C(=O)N2)on1` [Example 510, (9S,13S,19aR,22R)-22-benzyl-13-isobutyl-12-methyl-N-(2-(3-methylisoxazol-5-yl)ethyl)-7,11,14,20-tetraoxo-18-phenyl-7,8,9,10,11,12,13,14,17,18,19,19a,20,21,22,23-hexadecahydro-16H-pyrazino[2′,11:6,7][1]oxa[4,7,10,14]tetraazacycloheptadecino[17,16-c]quinoline-9-carboxamide], the pEC50 is 6.97. Moreover, where the note is “U2OS”, the Emax turned out to be 256%.

`COc1nccc2c1C(=O)N[C@H](C(=O)NCCc1nc(C3CC3)no1)CC(=O)N(C)[C@@H](CC(C)C)C(=O)N1CCCC[C@@H]1C(=O)N[C@H](Cc1ccccc1)CO2` [Example 511, (7S,11S,17aR,20R)-20-benzyl-N-(2-(3-cyclopropyl-1,2,4-oxadiazol-5-yl)ethyl)-11-isobutyl-4-methoxy-10-methyl-5,9,12,18-tetraoxo-5,6,7,8,9,10,11,12,15,16,17,17a,18,19,20,21-hexadecahydro-14H-dipyrido[2,1-f:3′,4′-p][1]oxa[4,7,10,14]tetraazacycloheptadecine-7-carboxamide]: the pEC50 is 6.20. Moreover, the Emax (U2OS) turned out to be 314%.

For `COc1nccc2c1C(=O)N[C@H](C(=O)NCCc1cc(C3CC3)on1)CC(=O)N(C)[C@@H](CC(C)C)C(=O)N1CCCC[C@@H]1C(=O)N[C@H](Cc1ccccc1)CO2` [Example 512, (7S,11S,17aR,20R)-20-benzyl-N-(2-(5-cyclopropylisoxazol-3-yl)ethyl)-11-isobutyl-4-methoxy-10-methyl-5,9,12,18-tetraoxo-5,6,7,8,9,10,11,12,15,16,17,17a,18,19,20,21-hexadecahydro-14H-dipyrido[2,1-f:3′,4′-p][1]oxa[4,7,10,14]tetraazacycloheptadecine-7-carboxamide], the pEC50 was 6.52. Moreover, for the setting “U2OS”, the Emax came out at 316%.

Regarding `COc1cccc(CCNC(=O)[C@@H]2CC(=O)N(C)[C@@H](CC(C)C)C(=O)N(C)CC(=O)N[C@H](Cc3ccccc3)COc3nccc(OC)c3C(=O)N2)c1` [Example 513, (3R,9S,13S)-3-benzyl-9-isobutyl-16-methoxy-N-(3-methoxyphenethyl)-7,10-dimethyl-5,8,11,15-tetraoxo-2,3,4,5,6,7,8,9,10,11,12,13,14,15-tetradecahydropyrido[3,2-p][1]oxa[4,7,10,14]tetraazacycloheptadecine-13-carboxamide], the pEC50 was 6.09. For the same compound, under “U2OS”, the Emax is 169%.

For the compound `CC(C)C[C@H]1C(=O)N2CCCC[C@@H]2C(=O)N[C@H](Cc2ccccc2)COc2ccc3ncccc3c2C(=O)N[C@H](C(=O)NCCc2cc(C3CC3)no2)CC(=O)N1C` [Example 514, (9S,13S,19aR,22R)-22-benzyl-N-(2-(3-cyclopropylisoxazol-5-yl)ethyl)-13-isobutyl-12-methyl-7,11,14,20-tetraoxo-7,8,9,10,11,12,13,14,17,18,19,19a,20,21,22,23-hexadecahydro-16H-pyrido[2′,11:6,7][1]oxa[4,7,10,14]tetraazacycloheptadecino[16,17-f]quinoline-9-carboxamide], the pEC50 was 6.77. In addition, for the setting “U2OS”, the maximal response (Emax) came out at 304%.

Take `COc1cc2c(cn1)OC[C@@H](Cc1ccccc1)NC(=O)[C@H]1CCCCN1C(=O)[C@H](CC(C)C)N(C)C(=O)C[C@@H](C(=O)NCCc1cc(C3CC3)no1)NC2=O` [Example 517, (7S,11S,17aR,20R)-20-benzyl-N-(2-(3-cyclopropylisoxazol-5-yl)ethyl)-11-isobutyl-3-methoxy-10-methyl-5,9,12,18-tetraoxo-5,6,7,8,9,10,11,12,15,16,17,17a,18,19,20,21-hexadecahydro-14H-dipyrido[2,1-f:2′,3′-p][1]oxa[4,7,10,14]tetraazacycloheptadecine-7-carboxamide]: the pEC50 was 6.01. For the same compound, the Emax (U2OS) turned out to be 222%.

On to `COc1cc2c(cn1)OC[C@@H](Cc1ccccc1)NC(=O)[C@H]1CCCCN1C(=O)[C@H](CC(C)C)N(C)C(=O)C[C@@H](C(=O)NCCc1cc(C3CC3)on1)NC2=O` [Example 518, (7S,11S,17aR,20R)-20-benzyl-N-(2-(5-cyclopropylisoxazol-3-yl)ethyl)-11-isobutyl-3-methoxy-10-methyl-5,9,12,18-tetraoxo-5,6,7,8,9,10,11,12,15,16,17,17a,18,19,20,21-hexadecahydro-14H-dipyrido[2,1-f:2′,3′-p][1]oxa[4,7,10,14]tetraazacycloheptadecine-7-carboxamide], for which the pEC50 was 6.18 and the Emax was determined as 189%.

With `CC(C)C[C@H]1C(=O)N(C)C2(CC2)C(=O)N[C@H](Cc2ccccc2)COc2cnc3ccc(F)cc3c2C(=O)N[C@H](C(=O)NCCc2cc(C3CC3)no2)CC(=O)N1C` [Example 519, (3′S,7′S,13′R)-13′-benzyl-N-(2-(3-cyclopropylisoxazol-5-yl)ethyl)-20′-fluoro-7′-isobutyl-6′,9′-dimethyl-1′,5′,8′,11′-tetraoxo-2′,3′,4′,5′,6′,7′,8′,9′,11′,12′,13′,14′-dodecahydro-1′H-spiro[cyclopropane-1,10′-[1]oxa[4,7,10,14]tetraazacycloheptadecino[17,16-c]quinoline]-3′-carboxamide], the pEC50 is 6.74. Also, the maximum response (Emax) (U2OS) is 332%.

As to `CC(C)C[C@H]1C(=O)N2CCCC[C@H]2C(=O)N[C@H](Cc2ccccc2)COc2cnc3ccc(F)cc3c2C(=O)N[C@H](C(=O)NCCc2noc(C3CC3)n2)CC(=O)N1C` [Example 520, (9S,13S,19aS,22R)-22-benzyl-N-(2-(5-cyclopropyl-1,2,4-oxadiazol-3-yl)ethyl)-5-fluoro-13-isobutyl-12-methyl-7,11,14,20-tetraoxo-7,8,9,10,11,12,13,14,17,18,19,19a,20,21,22,23-hexadecahydro-16H-pyrido[2′,11:6,7][1]oxa[4,7,10,14]tetraazacycloheptadecino[17,16-c]quinoline-9-carboxamide], the negative-log EC50 (pEC50) was 6.46. The maximal response (Emax) (U2OS) stood at 155%.

As for `CC(C)C[C@H]1C(=O)N2CCCC[C@H]2C(=O)N[C@H](Cc2ccccc2)COc2cnc3ccc(F)cc3c2C(=O)N[C@H](C(=O)NCCc2nc(C3CC3)no2)CC(=O)N1C` [Example 521, (9S,13S,19aS,22R)-22-benzyl-N-(2-(3-cyclopropyl-1,2,4-oxadiazol-5-yl)ethyl)-5-fluoro-13-isobutyl-12-methyl-7,11,14,20-tetraoxo-7,8,9,10,11,12,13,14,17,18,19,19a,20,21,22,23-hexadecahydro-16H-pyrido[2′,1′:6,7][1]oxa[4,7,10,14]tetraazacycloheptadecino[17,16-c]quinoline-9-carboxamide], the pEC50 is 6.36. The Emax (U2OS) is 191%.

For `CC(C)C[C@H]1C(=O)N2CCCC[C@H]2C(=O)N[C@H](Cc2ccccc2)COc2cnc3c(F)cccc3c2C(=O)N[C@H](C(=O)NCCc2ccc(-n3nccn3)cc2)CC(=O)N1C` [Example 522, (9S,13S,19aR,22R)-N-(4-(2H-1,2,3-triazol-2-yl)phenethyl)-22-benzyl-3-fluoro-13-isobutyl-12-methyl-7,11,14,20-tetraoxo-7,8,9,10,11,12,13,14,17,18,19,19a,20,21,22,23-hexadecahydro-16H-pyrido[2′,1′:6,7][1]oxa[4,7,10,14]tetraazacycloheptadecino[17,16-c]quinoline-9-carboxamide], the pEC50 is 6.69. For the same compound, for the setting “U2OS”, the Emax worked out at 237%.

For `COc1nccc2c1C(=O)N[C@H](C(=O)NCCc1cc(C3CC3)no1)CC(=O)N(C)[C@@H](CC(C)C)C(=O)N1CCCC[C@@H]1C(=O)N[C@H](Cc1ccccc1)CO2` [Example 523, (7S,11S,17aR,20R)-20-benzyl-N-(2-(3-cyclopropylisoxazol-5-yl)ethyl)-11-isobutyl-4-methoxy-10-methyl-5,9,12,18-tetraoxo-5,6,7,8,9,10,11,12,15,16,17,17a,18,19,20,21-hexadecahydro-14H-dipyrido[2,1-f:3′,4′-p][1]oxa[4,7,10,14]tetraazacycloheptadecine-7-carboxamide], the pEC50 was 6.32. Besides, under “U2OS”, the maximal effect (Emax) worked out at 352%.

Values taken from US20240208992A1, “MACROCYCLES AS CFTR MODULATORS” (Idorsia Pharmaceuticals Ltd, priority 2021, published 2024).
